Measurements published in PMC5224969 (ChemMedChem, 2016).
Like-named read-outs stand apart in the source and are kept apart here.

Assays:
BV-173 cells = assay: MTT cell viability assay, BV-173; format: cell-based, human; conditions: read-out: IC50 BV-173
[1] = test system: PTK panel (Abl, Csk, Src); assay: P32 kinase assay, average over the PTK panel; format: biochemical; conditions: average of Abl, compared to dasatinib
Csk = Csk (Homo sapiens, UniProt P41240); assay: standard P32 kinase assay, IC50, Csk; format: biochemical; conditions: for Net change in IC50 (%Dasatinib) Csk: compared to dasatinib; for IC50: read-out: IC50 Csk, P32 kinase assay, polyE4Y substrate, 200 μM ATP
Csk, sequence (P41240 whole entry, species assumed): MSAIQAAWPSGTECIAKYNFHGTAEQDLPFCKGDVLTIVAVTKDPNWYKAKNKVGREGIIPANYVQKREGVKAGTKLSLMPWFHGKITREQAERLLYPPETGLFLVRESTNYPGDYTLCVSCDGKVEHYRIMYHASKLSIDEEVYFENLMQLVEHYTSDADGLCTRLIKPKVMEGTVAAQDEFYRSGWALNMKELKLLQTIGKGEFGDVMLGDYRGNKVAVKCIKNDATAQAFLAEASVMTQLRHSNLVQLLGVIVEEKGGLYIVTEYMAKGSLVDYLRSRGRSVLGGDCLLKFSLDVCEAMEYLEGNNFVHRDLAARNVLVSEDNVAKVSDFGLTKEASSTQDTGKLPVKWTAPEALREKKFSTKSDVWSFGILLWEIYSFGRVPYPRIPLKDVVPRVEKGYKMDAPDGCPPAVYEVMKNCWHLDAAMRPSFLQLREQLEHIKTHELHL

K562 cells = assay: MTT cell viability assay, K562; format: cell-based, human; conditions: read-out: IC50 K562
Panc-1 cells = assay: MTT cell viability assay, Panc-1; format: cell-based, human
Abl [2] = biological target: T1, Abl (Homo sapiens, UniProt P00519); assay: standard P32 kinase assay, IC50, Abl; format: biochemical; conditions: for Net change in IC50 (%Dasatinib) Abl: compared to dasatinib; for IC50: read-out: IC50 Abl, P32 kinase assay, CrkL substrate, 200 μM ATP
T1 sequence (P00519 whole entry, species assumed): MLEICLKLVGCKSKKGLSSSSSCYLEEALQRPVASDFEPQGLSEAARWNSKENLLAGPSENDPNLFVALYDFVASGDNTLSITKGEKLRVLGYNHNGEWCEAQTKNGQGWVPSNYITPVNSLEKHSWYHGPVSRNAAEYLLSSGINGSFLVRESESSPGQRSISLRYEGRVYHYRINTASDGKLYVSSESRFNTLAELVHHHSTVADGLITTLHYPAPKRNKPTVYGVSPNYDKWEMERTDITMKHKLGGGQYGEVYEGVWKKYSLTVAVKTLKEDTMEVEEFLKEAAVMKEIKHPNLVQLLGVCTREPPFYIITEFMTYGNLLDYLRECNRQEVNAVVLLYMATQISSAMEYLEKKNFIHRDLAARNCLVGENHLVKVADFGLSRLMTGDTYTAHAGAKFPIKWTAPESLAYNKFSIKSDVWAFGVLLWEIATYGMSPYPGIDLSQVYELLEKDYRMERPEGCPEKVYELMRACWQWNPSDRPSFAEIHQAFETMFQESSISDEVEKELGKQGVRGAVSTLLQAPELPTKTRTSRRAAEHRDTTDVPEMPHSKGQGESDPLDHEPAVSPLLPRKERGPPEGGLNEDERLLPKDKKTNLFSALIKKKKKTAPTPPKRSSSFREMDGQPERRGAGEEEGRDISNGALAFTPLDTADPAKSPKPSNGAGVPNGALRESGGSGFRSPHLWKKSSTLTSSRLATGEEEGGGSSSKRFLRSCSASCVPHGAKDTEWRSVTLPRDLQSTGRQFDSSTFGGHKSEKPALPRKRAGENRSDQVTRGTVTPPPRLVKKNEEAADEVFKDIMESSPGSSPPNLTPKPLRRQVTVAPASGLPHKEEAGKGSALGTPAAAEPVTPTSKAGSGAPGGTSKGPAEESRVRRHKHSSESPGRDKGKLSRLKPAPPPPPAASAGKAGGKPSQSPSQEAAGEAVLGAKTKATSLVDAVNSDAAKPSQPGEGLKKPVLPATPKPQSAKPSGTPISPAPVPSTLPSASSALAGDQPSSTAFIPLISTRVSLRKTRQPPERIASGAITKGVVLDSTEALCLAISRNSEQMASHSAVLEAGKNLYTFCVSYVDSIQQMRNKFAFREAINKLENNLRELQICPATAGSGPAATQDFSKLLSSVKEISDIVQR

[3] = stability in mouse plasma, LC/MS/MS; format: in vitro ADME
Abl [4] = biological target: T1, Abl; assay: screening at a fixed concentration against Abl; format: biochemical; conditions: fixed concentration 250 pM
Src [5] = biological target: T2, Src (Homo sapiens, UniProt P12931); assay: standard P32 kinase assay, IC50, Src catalytic domain; format: biochemical; conditions: for Net change in IC50 (%Dasatinib) Src: compared to dasatinib; for IC50: read-out: IC50 Src, P32 kinase assay, polyE4Y substrate, 200 μM ATP
T2 sequence (P12931 270-523 limits assumed, species assumed): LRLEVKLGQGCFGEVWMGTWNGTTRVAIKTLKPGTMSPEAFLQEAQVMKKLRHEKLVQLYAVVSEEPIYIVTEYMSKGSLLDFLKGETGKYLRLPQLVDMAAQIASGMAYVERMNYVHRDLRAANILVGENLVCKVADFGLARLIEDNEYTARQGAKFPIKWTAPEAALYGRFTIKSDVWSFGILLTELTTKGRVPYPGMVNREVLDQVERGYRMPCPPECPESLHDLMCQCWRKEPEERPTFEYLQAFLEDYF

Src [6] = biological target: T2, Src; assay: screening at a fixed concentration against Src; format: biochemical; conditions: fixed concentration 250 pM

Structure (SMILES): CN[C@@H]1C[C@H]2O[C@@](C)([C@@H]1OC)n1c3ccccc3c3c4c(c5c6ccccc6n2c5c31)C(=O)NC4 [Staurosporine, staurosporine]
- IC50 (BV-173 cells; Homo sapiens, BV-173, 72 h): 4.77 nM

Structure (SMILES): CC(=O)OCCN1CCN(c2cc(Nc3ncc(C(=O)Nc4c(C)cccc4Cl)s3)nc(C)n2)CC1 [Compound 16]
- Net change in IC50 (%Dasatinib) Avg [1]: 46%
- Selectivity C/A (ratio of IC50 Csk over Abl) (Csk): 2.6
- Selectivity C/S (ratio of IC50 Csk over Src) (Csk): > 16.7
- Net change in IC50 (%Dasatinib) Csk (Csk): −21%
- IC50 (Csk): 5.5 nM
- IC50 (K562 cells; MTT, 72 h): < 0.0512 nM
- IC50 Panc-1 (Panc-1 cells; MTT, 72 h): no activity
- Selectivity A/S (ratio of IC50 Abl over Src) (Abl [2]): > 6.4
- Net change in IC50 (%Dasatinib) Abl (Abl [2]): 169%
- IC50 (Abl [2]): 2.1 nM
- IC50 (BV-173 cells; MTT, 72 h): < 0.0512 nM
- stability in mouse plasma ([3]; 0, 15, 30, 60, 120 min, dasatinib formation monitored): completely metabolized
- T1/2 in mouse plasma ([3]; 0-120 min incubation): < 5 min
- inhibition relative to dasatinib, Abl (Abl [4]): inhibited comparably to dasatinib
- Net change in IC50 (%Dasatinib) Src (Src [5]): −11%
- IC50 (Src [5]): < 0.33 nM
- inhibition relative to dasatinib, Src (Src [6]): inhibited comparably to dasatinib

Structure (SMILES): Cc1nc(Nc2ncc(C(=O)Nc3c(C)cccc3Cl)s2)cc(N2CCN(CCOC(=O)[C@H](C)N)CC2)n1 [Compound 3]
- Net change in IC50 (%Dasatinib) Avg [1]: 163%
- Selectivity C/A (ratio of IC50 Csk over Abl) (Csk): 7.0
- Selectivity C/S (ratio of IC50 Csk over Src) (Csk): > 53.8
- Net change in IC50 (%Dasatinib) Csk (Csk): 200%
- IC50 (Csk): 21 nM
- Selectivity A/S (ratio of IC50 Abl over Src) (Abl [2]): > 7.7
- Net change in IC50 (%Dasatinib) Abl (Abl [2]): 285%
- IC50 (Abl [2]): 3 nM
- Net change in IC50 (%Dasatinib) Src (Src [5]): 5%
- IC50 (Src [5]): < 0.39 nM

Structure (SMILES): Cc1nc(Nc2ncc(C(=O)Nc3c(C)cccc3Cl)s2)cc(N2CCN(CCO)CC2)n1 [Compound 1, N-(2-chloro-6-methylphenyl)-2-((6-(4-(2-hydroxyethyl)piperazin-1-yl)-2-methylpyrimidin-4-yl)amino)thiazole-5-carboxamide, reference compound]
- IC50 (K562 cells; Homo sapiens, K562, 72 h): < 0.0512 nM
- IC50 (Panc-1 cells; Homo sapiens, PANC-1, 72 h, read-out: IC50 Panc-1): 26300 nM
- IC50 (BV-173 cells; Homo sapiens, BV-173, 72 h): < 0.0512 nM
